Reference: patent US20200377496A1, “INDOLE AND BENZIMIDAZOLE DERIVATIVES AS DUAL 5-HT2A and 5-HT6 RECEPTOR ANTAGONISTS” (ADAMED PHARMA, S.A., priority 2018, published 2020)

Legend:
[1] = test system: scopolamine-induced deficits in learning and memory; assay: Scopolamine-induced deficits in step-through passive avoidance test in Wistar rats; type: in vivo; details: hydrochloride salt p.o. 180 min before training; scopolamine 0.3 mg/kg i.p.; male Wistar rats
Procedure: Biological Example 4. Effects of Compounds 1 and 17, on Scopolamine-Induced Deficits in Learning and Memory in the Passive Avoidance Test in Wistar Rats
Drug-naive male Wistar rats (Charles River, Sulzfeld, Germany) were used. Rats were housed four per standard plastic cage and kept in a room with constant environmental conditions (22±1° C., relative humidity 60%, a 12:12 light-dark cycle with lights on at 7:00 a.m.). Animals were supplied by the breeder 2-3 weeks before the onset of behavioral procedures. During this time, the subjects were weighted and handled several times. […]
Effects of tested compounds on learning and memory function were evaluated using a step-through passive avoidance test (Ishiyama et al., 2007). […]
In the training (acquisition) session, the animals were individually placed in the lighted compartment and allowed to explore it freely for 10 s. The sliding door was then opened, and the step-through latency for animals to enter the dark compartment was measured with a 300-s cut-off time. […]
The test (expression) session was performed 24 h after the training session using the same paradigm but without any foot-shock or drug injections. Step-through latencies for animals to enter the dark compartment were measured with a 300-s cut-off time. […]
Body weights (g) and training/test latencies (s) were analyzed with the aid of a one-way analysis of variance (ANOVA). […]

[2] = test system: head twitches induced by 5-HT2A/C receptor agonist DOI; assay: DOI-induced head twitches in Wistar rats; type: in vivo; details: hydrochloride salt p.o. 180 min before observation; DOI 2.5 mg/kg i.p.; male Wistar rats
Procedure: Biological Example 3. Effects of Compounds 1 and 17, on Head Twitches Induced by a 5-HT2A/C receptor agonist, 1-(2,5-dimethoxy-4-Iodophenyl)-2-aminopropane hydrochloride (DOI) in Wistar Rats
Drug-naive male Wistar rats (Charles River, Sulzfeld, Germany) were used. Rats were housed four per standard plastic cage and kept in a room with constant environmental conditions (22±1° C., relative humidity 60%, a 12:12 light-dark cycle with lights on at 07:00 a.m.). Animals were supplied by the breeder 2 weeks before the onset of behavioral procedures. During this time, the subjects were weighted and handled several times. The rats were also habituated to p.o. administration of tested compounds in form of hydrochloride salt by gavage dosing of distilled water (1-2 mL). Tap water and standard lab chow (Labofeed H, WPIK, Kcynia, Poland) was available ad libitum.
All tests were carried out in a sound-attenuated experimental room between 10:00 a.m. and 04:00 p.m. DOI-induced head twitches were scored as described by Millan et al. (2000). Rats were injected with DOI (2.5 mg/kg, i.p.) and placed in glass observation cages (25×25×40 cm, W×H×L) with wood chip bedding on the floor. Five minutes later, head twitches were counted for 5 min. (300 s) by a trained observer. […]
Total numbers of head twitches (n/5 min.) were analyzed with the aid of the Kruskal-Wallis analysis of variance (ANOVA). […]

| Structure (SMILES) | minimal effective dose, elongation of step-through latencies in test session [1] [mg/kg] | minimum effective dose (MED), attenuation of DOI-induced head twitches [2] [mg/kg] |
| --- | --- | --- |
| FC(F)(F)c1nc2c(N3CCNCC3)cccc2n1Cc1ccccc1 [Compound 1, 1-benzyl-4-(piperazin-1-yl)-2-(trifluoromethyl)-1H-benzimidazole] | 3.0 | 3.0 |
| FC(F)(F)c1cc2c(N3CCNCC3)cccc2n1Cc1ccco1 [Compound 17, 1-(furan-2-ylmethyl)-4-(piperazin-1-yl)-2-(trifluoromethyl)-1H-indole] | 1.0 | 1.0 |
